For this test, the target named is T1, Glycogen phosphorylase, muscle form (Oryctolagus cuniculus, UniProt P00489).
T1 sequence (P00489 whole entry): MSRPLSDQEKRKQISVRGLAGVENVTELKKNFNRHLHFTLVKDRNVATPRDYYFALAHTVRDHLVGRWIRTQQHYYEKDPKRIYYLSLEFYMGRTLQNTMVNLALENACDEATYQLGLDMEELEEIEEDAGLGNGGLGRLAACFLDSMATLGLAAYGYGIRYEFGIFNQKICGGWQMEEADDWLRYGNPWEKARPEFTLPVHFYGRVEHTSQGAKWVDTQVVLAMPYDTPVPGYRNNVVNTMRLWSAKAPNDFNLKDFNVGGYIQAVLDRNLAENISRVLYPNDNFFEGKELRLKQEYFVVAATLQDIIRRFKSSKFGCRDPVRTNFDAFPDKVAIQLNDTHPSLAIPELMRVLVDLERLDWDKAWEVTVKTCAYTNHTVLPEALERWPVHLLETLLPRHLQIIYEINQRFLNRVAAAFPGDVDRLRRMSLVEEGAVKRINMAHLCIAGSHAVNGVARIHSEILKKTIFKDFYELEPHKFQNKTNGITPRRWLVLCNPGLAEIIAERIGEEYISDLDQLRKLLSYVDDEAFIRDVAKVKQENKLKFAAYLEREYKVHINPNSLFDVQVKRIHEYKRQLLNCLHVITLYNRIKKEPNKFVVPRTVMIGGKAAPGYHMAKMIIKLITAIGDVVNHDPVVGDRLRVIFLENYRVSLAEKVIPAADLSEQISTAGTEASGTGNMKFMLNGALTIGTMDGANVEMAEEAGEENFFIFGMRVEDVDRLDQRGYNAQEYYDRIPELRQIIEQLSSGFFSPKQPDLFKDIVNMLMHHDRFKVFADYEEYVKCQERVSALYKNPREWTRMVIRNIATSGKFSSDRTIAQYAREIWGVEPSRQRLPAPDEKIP
The test can be described thus: Inhibition of rabbit muscle glycogen phosphorylase b.
In the case of `CC(=O)NN1C(=O)N[C@@]2(O[C@H](CO)[C@@H](O)[C@H](O)[C@H]2O)C1=O`, the affinity, expressed as Ki, was 550 µM.
In the case of `O=C1NCC(O)NC12O[C@H](CO)[C@@H](O)[C@H](O)[C@H]2O` (some centres undefined) it was 59.7 µM; in that of `CN1C(=O)N[C@@]2(O[C@H](CO)[C@@H](O)[C@H](O)[C@H]2O)C1=O`, 1200 µM; in that of `NN1C(=O)N[C@@]2(O[C@H](CO)[C@@H](O)[C@H](O)[C@H]2O)C1=O`, 146 µM.
The result for `O=C1NC(=O)[C@@]2(N1)OC[C@@H](O)[C@H](O)[C@H]2O` reads above 11500 µM.
In the case of `O=C1NC(=O)[C@@]2(C[C@H](O)[C@@H]([C@@H](O)CO)O2)N1` it was 8200 µM; in that of `O=C1NC(=O)[C@]2(C[C@H](O)[C@@H]([C@@H](O)CO)O2)N1`, 220000 µM.
`O=C1NC(=S)N[C@@]12OC[C@@H](O)[C@H](O)[C@H]2O` came in with a Ki above 10000 µM.
The result for `O=C1N[C@@]2(O[C@H](CO)[C@@H](O)[C@H](O)[C@H]2O)C(=O)N1O` reads 39 µM.

By Ki is commonly meant the equilibrium dissociation constant of an inhibitor or competing ligand from its target.

The record behind these values is ChEMBL document CHEMBL1152626, “Glucose-based spiro-isoxazolines: a new family of potent glycogen phosphorylase inhibitors” (Bioorg Med Chem, 2009).
